PubChem BioAssay (NCI)
Where “and” joins values, the source holds several entries; their conditions need not be identical. Equal values may be shown once.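 Cells were grown in 96-well plates and exposed to each compound for 48 hours at five concentrations; endpoints were interpolated linearly between bracketing concentrations, or set to the highest concentration if not reached. Here, GI50 denotes the concentration required for 50% inhibition of growth. TGI: concentration producing complete growth inhibition.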

Legend:
Test in all cases: growth of human tumour cells (NCI), 48 h
[1] = system: M19-MEL melanoma
[2] = system: KM20L2 colon
[3] = system: NCI-H23 lung
[4] = system: HL-60(TB) leukemia
[5] = system: DLD-1 colon
[6] = system: OVCAR-3 ovarian
[7] = system: NCI/ADR-RES ovarian
[8] = system: MCF7 breast
[9] = system: BT-549 breast
[10] = system: DU-145 prostate

SMILES	TGI [1]	TGI [2] [µM]	TGI [3]	GI50 [4] [µM]	TGI [4] [µM]	TGI [5]	TGI [6]	GI50 [1] [µM]	GI50 [2] [µM]	GI50 [3] [µM]	GI50 [5] [µM]	GI50 [6] [µM]	GI50 [7] [µM]	TGI [7] [µM]	GI50 [8] [µM]	TGI [8] [µM]	GI50 [9] [µM]	TGI [9] [µM]	GI50 [10] [µM]	TGI [10] [µM]
CN(C)C(=O)/N=c1\ss/c(=N\C(=S)N(C)C)n1-c1ccccc1	> 100 µM	> 100	> 100 µM	6.59	44.8	> 100 µM	> 65.6 µM													
CN=C1Nc2ccc(Cl)cc2C(c2ccccc2)=NN1C	> 100 µM	> 100	> 100 µM		> 100	> 100 µM	> 100 µM													
N/C(=N\N=C\c1cccs1)NO	> 100 µM		> 100 µM		> 100	> 100 µM	> 100 µM													
C#CCOCn1cnc2c(=S)nc[nH]c21	> 100 µM	> 100	> 100 µM		> 100	> 100 µM	> 100 µM													
CCc1ccccc1NC(=O)CCc1n[nH]c(=S)o1	> 100 µM	> 100	> 100 µM		> 100	> 100 µM	> 100 µM													
CCC1=C(C)/C(=C/c2[nH]c(CBr)c(CC)c2C)N=C1CBr	33.7 µM	32.1	46.7 µM		25.6	29 µM	30.1 µM													
O=c1c2ccccc2nc(-c2ccc(Br)cc2)n1NC1OC(CO)C(O)C(O)C1O (stereo not drawn)	> 100 µM	> 100	> 100 µM		> 100		> 100 µM													
COc1cc(/C=C2\[C@H]3c4c(c(OC)c(C)c(OC)c4OC)C[C@@H](C(=O)N2Cc2ccccc2)N3C(=O)OC(C)C)c(OC)c(C)c1OC		> 100	> 100 µM		> 100	> 100 µM	> 100 µM													
COc1cc2nc(Sc3c([N+](=O)[O-])ncn3C)[nH]c2cc1OC	> 100 µM	> 100	> 100 µM			46 µM	> 100 µM													
COc1cc2ccc3c4c(OC)cc(OC)c(OC)c4c(=O)n(C)c3c2cc1OC	16.7 µM and > 40.9 µM		16.7 µM and > 46 µM	0.351	1.16	4.14 µM and > 33.5 µM	7.02 µM and > 40.5 µM	3.7	0.446	2.09	1.8	0.755								
N.N.N.N.N.N.[I-].[Os]		> 100	> 100 µM	> 100	> 100	> 100 µM	> 100 µM		> 100	> 100	> 100	> 100								
CCOC(=O)c1ccc(N(CCOS(C)(=O)=O)CCOS(C)(=O)=O)cc1C			55.5 µM	8.08	51.2		44 µM			15.1		18.8	23.7	66.9	17.5	> 100	34.1	> 100	18.4	38.9
COc1cc(/C=C/C(=O)c2ccc(Nc3ncnc4ccccc34)cc2)cc(OC)c1			38.2 µM	3.74	30.4		13.5 µM			5.08		4	6.52	> 100	1.84	5.79	3.34	11.9	6.71	22.2
CCOC(=O)/C(=C/c1ccc([N+](=O)[O-])cc1)C(=O)c1ccccc1			5.56 µM	2.34	5.87		5.96 µM			2.25		2.56	3.43	19.8	2.32	8.94	2.04	4.37	2.08	4.27
Cc1n[nH]c(=S)n1/N=C/c1ccc(F)c(Oc2ccccc2)c1			> 100 µM	48.6	> 100		> 100 µM			42.2		44.6	33.2	> 100	41.4	> 100	63.7	> 100	49.5	> 100
CCCCCCCC/C=C/CCCCCCCC1=NC(C)(C)CN1C(C)C			2.83 µM	1.62	3.25		2.53 µM			1.51		1.27	1.54	3.16	1.52	2.95	1.58	3.74	1.63	2.99
Oc1ccc(CNCc2ccccc2)c2cccnc12			> 100 µM		1.05		0.721 µM							16.9		> 100		> 100		38.4
COc1ccc(-c2cnc3ccnn3c2-c2cc(OC)c(OC)c(OC)c2)cc1			> 100 µM	2.3	7.16		7.91 µM			8.29		2.51	2.89	> 100	3.51	> 100	12.2	95.4	4.23	> 100
